Reference: the NIST ThermoML archive (doi:10.1016/j.jct.2013.08.023)
Numbers after ± are expanded uncertainties.

Assays:
[1] = 298.15 K; 101 kPa; Liquid; Vibrating tube method
[2] = refractive index (Na D-line) (dimensionless); conditions: 298.15 K; 101 kPa; Liquid; Standard Abbe refractometry

CCCC[N+](C)(C)C.O=S(=O)([N-]S(=O)(=O)C(F)(F)F)C(F)(F)F [butyltrimethylammonium bis(trifluoromethylsulfonyl)imide]
mass density [1]: 1393 ± 0.2 kg/m3
refractive index [2]: 1.40806 ± 0.00031

CCO [ethanol]
mass density [1]: 785.9 ± 0.2 kg/m3
refractive index [2]: 1.35936 ± 0.00037

CCCCCCC [heptane]
mass density [1]: 679.6 ± 0.3 kg/m3
refractive index [2]: 1.38529 ± 0.00037

CCCCCC [hexane]
mass density [1]: 655.2 ± 0.3 kg/m3
refractive index [2]: 1.37241 ± 0.00037

CO [methanol]
mass density [1]: 786.9 ± 0.2 kg/m3
refractive index [2]: 1.32636 ± 0.00037

CCCC[N+](C)(CCCC)CCCC.O=S(=O)([N-]S(=O)(=O)C(F)(F)F)C(F)(F)F [tributylmethylammonium bis((trifluoromethyl)sulfonyl)imide]
mass density [1]: 1261.3 ± 0.2 kg/m3
refractive index [2]: 1.42614 ± 0.00032
